Source: ChEMBL document CHEMBL4651402, “Screening of ~5500 FDA-approved drugs and clinical candidates for anti-SARS-CoV-2 activity” (2021)

Tested on: SARS-CoV-2
Assay: microbe, parasite or virus in culture
Details: Severe acute respiratory syndrome coronavirus 2, Vero C1008, 48 h

SMILES | IC50 [µM] | IC50 (read-out: pIC50 (converted)) [µM]
CC(C)(O)c1ccn2c(-c3ccc(F)c(-c4ccc(F)cc4C#N)c3)cnc2c1F | > 20 | > 20
O=C(OCc1ccccc1)c1ccc(O)cc1 | > 20 | > 20
C[C@@H]1C\C=C/C=C\C=C/C=C\[C@H](O[C@@H]2O[C@H](C)[C@@H](O)[C@H](N)[C@@H]2O)C[C@@H]2O[C@](O)(C[C@@H](O)C[C@H]3O[C@@H]3/C=C\C(=O)O1)C[C@H](O)[C@H]2C(=O)O | > 20 | > 20
C[C@@H]1CC(=O)NN=C1c1ccc2c(c1)OCC(=O)N2 | > 20 | > 20
COc1ccc(CCNCCC(=O)N2CCCSc3ccccc32)cc1OC | > 20 | > 20
C[C@]1(O)CCC2C3CC[C@H]4CC(=O)/C(=C/O)C[C@]4(C)C3CC[C@@]21C (some centres not stated) | > 20 | > 20
CC12CCC3C(CCC4CC(O)CCC43C)C1CCC2=O (configuration not stated) | > 20 | > 20
CCOC(=O)C(CCc1ccccc1)NC(C)C(=O)N(CC(=O)O)C1Cc2ccccc2C1 (configuration not stated) | > 20 | > 20
OC[C@H]1O[C@@](O)(CO)[C@@H](O)[C@@H]1O | > 20 | > 20
CC12CCC(=O)C=C1CCC1C3CC[C@](C)(O)C3(C)CC(O)[C@@]12F (some centres not stated) | > 20 | > 20
C[C@H]1CN([C@H]2CC[C@](C#N)(c3ccc(F)cc3)CC2)CC[C@]1(C(=O)O)c1ccccc1 | > 20 | > 20
C=C[C@](C)(O)CC[C@H]1C(=C)C[C@H](OC(C)=O)[C@H]2C(C)(C)CCC[C@]12C | > 20 | > 20
CNC(=O)[C@H]1O[C@@H](n2cnc3c(NCc4cccc(I)c4)ncnc32)[C@@H](O)[C@H]1O | > 20 | > 20
CCC(CC)[C@@H](c1ccc(Nc2nc3ccccc3s2)cc1)n1cncn1 | > 20 | > 20
CCCCCC(=O)O[C@]1(C(C)=O)CCC2C3CCC4=CC(=O)CCC4(C)C3CCC21C (some centres not stated) | > 20 | > 20
[O-][n+]1cccc(C(Cl)=NOC[C@H](O)CN2CCCCC2)c1 | > 20 | > 20
C=C[C@@]1(C)CC(=O)[C@@]2(O)[C@](C)(O1)[C@@H](OC(C)=O)[C@@H](OC(=O)CCN(C)C)C1C(C)(C)CC[C@H](O)[C@@]12C (some centres not stated) | > 20 | > 20
CC(=O)OC1C=C2CCC3C(CCC4(C)C(OC(C)=O)CCC34)C2(C)CC1 (configuration not stated) | > 20 | > 20
Nc1nc(Cl)nc2c1ncn2[C@@H]1C[C@H](O)[C@@H](CO)O1 | > 20 | > 20
CC(C)C1NC(=O)[C@@H](C(C)C)OC(=O)[C@H](C(C)C)NC(=O)[C@H](C)OC(=O)[C@@H](C(C)C)NC(=O)[C@@H](C(C)C)OC(=O)[C@H](C(C)C)NC(=O)[C@H](C)OC(=O)[C@@H](C(C)C)NC(=O)[C@@H](C(C)C)OC(=O)[C@H](C(C)C)NC(=O)[C@H](C)OC1=O (some centres not stated) | > 20 | > 20
NC(C=O)C(O)C(O)C(O)CO (configuration not stated) | > 20 | > 20

SMILES | IC50 [µM] | IC50 (read-out: pIC50 (converted)) [µM]
CCCCCCN1CCN(/C(=N/CC(C)C)c2ccccc2)CC1 | > 20 | > 20
CC(=O)N[C@@H](CC(N)=O)C(=O)O | > 20 | > 20
CC12CCCC1C1CC[C@H]3CCCC[C@]3(C)C1CC2 (some centres not stated) | > 20 | > 20
COc1ccc2c3c1O[C@H]1[C@@H](O)C=C[C@H]4[C@@H](C2)[N@+](C)([O-])CC[C@@]341 | > 20 | > 20
CN(N=O)C(=O)N[C@@H](C=O)[C@@H](O)[C@H](O)[C@H](O)CO.CN(N=O)C(=O)N[C@H]1C(O)O[C@H](CO)[C@@H](O)[C@@H]1O | > 20 | > 20
CC(=O)OCC(=O)[C@@]1(O)CC[C@H]2C3CCC4=CC(=O)C=CC4(C)[C@H]3C(=O)CC21C (some centres not stated) | > 20 | > 20
COc1cccc(N2CCN(C3=Nc4c(F)cccc4C(CC(=O)O)N3c3cc(C(F)(F)F)ccc3OC)CC2)c1 (configuration not stated) | > 20 | > 20
CCCc1ccc(C(=O)O)nc1 | > 20 | > 20
CC(=O)OC1CCC2C3CC[C@H]4CC(=O)C(C)=CC4(C)C3CCC12C (some centres not stated) | > 20 | > 20
C#C[C@]1(O)CC[C@H]2[C@@H]3CCC4=CC(=NO)CC[C@@H]4[C@H]3CC[C@@]21CC | > 20 | > 20
O=C(O)c1nn(-c2ccc(S(=O)(=O)O)cc2)c(O)c1/N=N/c1ccc(S(=O)(=O)O)cc1 | > 20 | > 20
C[C@@H]1CC[C@@]2(OC1)OC1CC3C4CC[C@H]5CC(O)CC[C@]5(C)C4CC[C@]3(C)C1[C@@H]2C (some centres not stated) | > 20 | > 20
CC12CCC3C4CCC(O)CC4=CCC3C1CCC2O (configuration not stated) | > 20 | > 20
CC(=O)OCC(=O)C1CCC2C3CC[C@H]4CC(O)CCC4(C)C3C(=O)CC12C (some centres not stated) | > 20 | > 20
C1CN1c1nc(N2CC2)nc(N2CC2)n1 | > 20 | > 20
CN1C2CCC1CC(OC1c3ccccc3CCc3ccccc31)C2 (configuration not stated) | > 20 | > 20
CN(C)CCOCC(=O)NC12CC3CC(CC(C3)C1)C2 | > 20 | > 20
O=C(C1CCCCC1)N1CC(=O)N2CCCc3ccccc3C2C1 (configuration not stated) | > 20 | > 20
OCC1OC(Oc2ccc(O)cc2)C(O)C(O)C1O (configuration not stated) | > 20 | > 20
Oc1c(Cc2ccccc2)ccc2ccccc12 | > 20 | > 20
